Experiments:
[1] = target: T1, NLRP3 (Homo sapiens, UniProt Q96P20); experiment: Human whole blood IL1β release assay; type: cell-based; conditions: LPS 1 μg/ml, nigericin 10 μM, IL-1β AlphaLisa, 10 μM top dose (Example 2: top dose of 30 μM), read-out: HWB IC50
Method: For systemic delivery, the ability to inhibit NLRP3 when the compounds are present within the bloodstream is of great importance. For this reason, the NLRP3 inhibitory activity of a number of compounds in human whole blood was investigated in accordance with the following protocol.
Human whole blood in sodium-heparin or lithium-heparin tubes was obtained from healthy donors from a volunteer donor panel. • 1. Plate out 80 μl of whole blood containing 1 μg/ml of LPS in 96-well, clear bottom cell culture plate (Corning #3585) • 2. Add 10 μl compound (8 points half-log dilution with 10 μM top dose, unless stated otherwise) or vehicle (DMSO 0.1% FAC) to the appropriate wells • 3. Incubate for 3 hrs at 37° C., 5% CO2 • 4. Add 10 μl nigericin (Sigma #N7143) (10 μM FAC) to all wells • 5. Incubate for 1 hr at 37° C., 5% CO2 • 6. At the end of the incubation period, spin plates at 300×g for 5 mins to pellet cells and remove 20 μl of supernatant and add to 96-well v-bottom plates for IL-1β analysis (note: these plates containing the supernatants can be stored at −80° C. to be analysed at a later date) • 7. IL-1β was measured according to the manufacturer protocol (Perkin Elmer-AlphaLisa IL-1 Kit AL220F-5000) • 8. IC50 data is fitted to a non-linear regression equation (log inhibitor vs response-variable slope 4-parameters)

[2] = target: T1, NLRP3; experiment: THP-1 cells pyroptosis assay; type: cell-based; set-up: Seed THP-1 cells (25,000 cells/well) containing 1.0 μg/ml LPS; host or cells: THP-1; conditions: LPS 1.0 μg/ml, nigericin 5 μM, resazurin readout, 10 μM top dose (Example 2: top dose of 30 μM)
How it was run: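 THP-1 cells (25,000/well) primed with 1 μg/ml LPS in serum-free RPMI, treated with compound (8-point dilution, 10 μM top unless stated; 0.1% DMSO) 3 h at 37°C, then nigericin 5 μM 1 h. Viability read by resazurin (100 μM, 1-2 h) fluorescence; IC50 from 4-parameter fit.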

T1 sequence (Q96P20 whole entry): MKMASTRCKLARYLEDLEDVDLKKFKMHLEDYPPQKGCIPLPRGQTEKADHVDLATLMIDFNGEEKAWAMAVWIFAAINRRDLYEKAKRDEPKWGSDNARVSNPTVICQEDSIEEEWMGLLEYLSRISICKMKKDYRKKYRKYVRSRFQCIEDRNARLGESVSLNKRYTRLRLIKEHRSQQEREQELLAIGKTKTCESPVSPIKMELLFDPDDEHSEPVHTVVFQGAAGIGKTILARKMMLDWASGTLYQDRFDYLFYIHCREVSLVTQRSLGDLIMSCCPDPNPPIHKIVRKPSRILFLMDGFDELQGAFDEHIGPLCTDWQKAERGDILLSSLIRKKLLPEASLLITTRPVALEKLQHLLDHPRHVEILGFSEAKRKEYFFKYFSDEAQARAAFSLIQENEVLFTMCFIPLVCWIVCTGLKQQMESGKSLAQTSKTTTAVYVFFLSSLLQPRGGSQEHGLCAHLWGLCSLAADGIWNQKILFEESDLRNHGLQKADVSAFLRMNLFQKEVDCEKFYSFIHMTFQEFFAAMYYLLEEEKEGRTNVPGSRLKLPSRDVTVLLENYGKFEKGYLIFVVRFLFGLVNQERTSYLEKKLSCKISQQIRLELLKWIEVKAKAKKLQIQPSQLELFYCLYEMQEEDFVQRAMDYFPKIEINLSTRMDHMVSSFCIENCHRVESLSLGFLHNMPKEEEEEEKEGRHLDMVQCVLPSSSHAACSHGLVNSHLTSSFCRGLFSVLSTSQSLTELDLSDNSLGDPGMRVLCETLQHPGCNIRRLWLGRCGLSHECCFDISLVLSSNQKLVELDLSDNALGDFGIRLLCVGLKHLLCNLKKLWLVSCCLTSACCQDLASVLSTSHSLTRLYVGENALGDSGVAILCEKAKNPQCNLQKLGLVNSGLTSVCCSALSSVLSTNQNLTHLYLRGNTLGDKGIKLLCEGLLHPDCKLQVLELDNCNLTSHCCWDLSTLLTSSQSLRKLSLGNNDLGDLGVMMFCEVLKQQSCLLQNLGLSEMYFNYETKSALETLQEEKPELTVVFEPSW

SMILES	IC50 [1] [µM]	IC50 [2] [µM]
COc1cc(-c2ccc3c(c2Nc2nnc(S(=O)(=O)c4ccn(C(C)C)n4)[nH]2)CCC3)ccn1 [Example 34, 5-((1-isopropyl-1H-pyrazol-3-yl)sulfonyl)-N-(5-(2-methoxypyridin-4-yl)-2,3-dihydro-1H-inden-4-yl)-4H-1,2,4-triazol-3-amine]	≤ 5	≤ 1
CC(C)n1ccc(S(=O)(=O)c2nnc(Nc3c(-c4ccncc4)cc(F)c4c3CCC4)[nH]2)n1 [Example 36, N-(7-fluoro-5-(pyridin-4-yl)-2,3-dihydro-1H-inden-4-yl)-5-((1-isopropyl-1H-pyrazol-3-yl)sulfonyl)-4H-1,2,4-triazol-3-amine]	≤ 10	≤ 5
CN(C)Cc1cccc(S(=O)(=O)c2nnc(Nc3c4c(cc5c3CCC5)CCC4)[nH]2)c1 [Example 44, 5-((3-((dimethylamino)methyl)phenyl)sulfonyl)-N-(1,2,3,5,6,7-hexahydro-s-indacen-4-yl)-4H-1,2,4-triazol-3-amine]	≤ 5	≤ 0.5
CCN(CC)CCS(=O)(=O)c1nnc(Nc2c3c(cc4c2CCC4)CCC3)[nH]1 [Example 46, 5-((2-(diethylamino)ethyl)sulfonyl)-N-(1,2,3,5,6,7-hexahydro-s-indacen-4-yl)-4H-1,2,4-triazol-3-amine]	≤ 5	≤ 1
CN1CCCCC1CCS(=O)(=O)c1nnc(Nc2c3c(cc4c2CCC4)CCC3)[nH]1 (stereo not shown) [Example 59, N-(1,2,3,5,6,7-Hexahydro-s-indacen-4-yl)-3-((2-(1-methylpiperidin-2-yl)ethyl)sulfonyl)-1H-1,2,4-triazol-5-amine]	≤ 1	≤ 0.5
CCN(CC)CCCS(=O)(=O)c1nnc(Nc2c(-c3ccncc3)cc(F)c3c2CCC3)[nH]1 [Example 77, 5-((3-(diethylamino)propyl)sulfonyl)-N-(7-fluoro-5-(pyridin-4-yl)-2,3-dihydro-1H-inden-4-yl)-4H-1,2,4-triazol-3-amine]	≤ 5	≤ 1
CCN(CC)CCN(C)S(=O)(=O)c1nnc(Nc2c3c(cc4c2CCC4)CCC3)[nH]1 [Example 80, N-(2-(diethylamino)ethyl)-3-((1,2,3,5,6,7-hexahydro-s-indacen-4-yl)amino)-N-methyl-1H-1,2,4-triazole-5-sulfonamide]	≤ 5	≤ 1
CN1CCC(N(C)S(=O)(=O)c2nnc(Nc3c4c(cc5c3CCC5)CCC4)[nH]2)C1 (stereo not shown) [Example 87, 5-((1,2,3,5,6,7-hexahydro-s-indacen-4-yl)amino)-N-methyl-N-(1-methylpyrrolidin-3-yl)-4H-1,2,4-triazole-3-sulfonamide]	≤ 1	≤ 5
O=S(=O)(NCCN1CCC1)c1nnc(Nc2c3c(cc4c2CCC4)CCC3)[nH]1 [Example 89, N-(2-(azetidin-1-yl)ethyl)-5-((1,2,3,5,6,7-hexahydro-s-indacen-4-yl)amino)-4H-1,2,4-triazole-3-sulfonamide]	≤ 5	≤ 1
CN(C)C1CN(S(=O)(=O)c2nnc(Nc3c4c(cc5c3CCC5)CCC4)[nH]2)C1 [Example 91, 5-((3-(dimethylamino)azetidin-1-yl)sulfonyl)-N-(1,2,3,5,6,7-hexahydro-s-indacen-4-yl)-4H-1,2,4-triazol-3-amine]	≤ 5	≤ 5
CN(C)C1CCN(S(=O)(=O)c2nnc(Nc3c4c(cc5c3CCC5)CCC4)[nH]2)C1 (stereo not shown) [Example 93, 5-((3-(dimethylamino)pyrrolidin-1-yl)sulfonyl)-N-(1,2,3,5,6,7-hexahydro-s-indacen-4-yl)-4H-1,2,4-triazol-3-amine]	≤ 5	≤ 5
CN1CCCC1CNS(=O)(=O)c1nnc(Nc2c3c(cc4c2CCC4)CCC3)[nH]1 (stereo not shown) [Example 95, 5-((1,2,3,5,6,7-hexahydro-s-indacen-4-yl)amino)-N-((1-methylpyrrolidin-2-yl)methyl)-4H-1,2,4-triazole-3-sulfonamide]	≤ 5	≤ 1
O=S(=O)(c1nnc(Nc2c3c(cc4c2CCC4)CCC3)[nH]1)N1CCC(N2CCCC2)C1 (stereo not shown) [Example 104, 5-([1,3′-bipyrrolidin]-1′-ylsulfonyl)-N-(1,2,3,5,6,7-hexahydro-s-indacen-4-yl)-4H-1,2,4-triazol-3-amine]	≤ 5	≤ 0.5
O=S(=O)(NCCN1CCCC1)c1nnc(Nc2c3c(cc4c2CCC4)CCC3)[nH]1 [Example 108, 5-((1,2,3,5,6,7-hexahydro-s-indacen-4-yl)amino)-N-(2-(pyrrolidin-1-yl)ethyl)-4H-1,2,4-triazole-3-sulfonamide]	≤ 5	≤ 0.5
CCN(CC)CCCNS(=O)(=O)c1nnc(Nc2c3c(cc4c2CCC4)CCC3)[nH]1 [Example 109, N-(3-(diethylamino)propyl)-5-((1,2,3,5,6,7-hexahydro-s-indacen-4-yl)amino)-4H-1,2,4-triazole-3-sulfonamide]	≤ 1	≤ 0.5
CC(C)N(CCNS(=O)(=O)c1nnc(Nc2c3c(cc4c2CCC4)CCC3)[nH]1)C(C)C [Example 110, N-(2-(diisopropylamino)ethyl)-5-((1,2,3,5,6,7-hexahydro-s-indacen-4-yl)amino)-4H-1,2,4-triazole-3-sulfonamide]	≤ 10	≤ 0.5
CC(C)N1CCN(S(=O)(=O)c2nnc(Nc3c4c(cc5c3CCC5)CCC4)[nH]2)CC1 [Example 117, N-(1,2,3,5,6,7-hexahydro-s-indacen-4-yl)-5-((4-isopropylpiperazin-1-yl)sulfonyl)-4H-1,2,4-triazol-3-amine]	≤ 5	≤ 1
CN(C1CNC1)S(=O)(=O)c1nnc(Nc2c3c(cc4c2CCC4)CCC3)[nH]1 [Example 120, N-(azetidin-3-yl)-5-((1,2,3,5,6,7-hexahydro-s-indacen-4-yl)amino)-N-methyl-4H-1,2,4-triazole-3-sulfonamide]	≤ 5	≤ 5
O=S(=O)(c1nnc(Nc2c3c(cc4c2CCC4)CCC3)[nH]1)N1CCCC1 [Example 122, N-(1,2,3,5,6,7-hexahydro-s-indacen-4-yl)-5-(pyrrolidin-1-ylsulfonyl)-4H-1,2,4-triazol-3-amine]	≤ 10	≤ 5
O=S(=O)(c1nnc(Nc2c3c(cc4c2CCC4)CCC3)[nH]1)N1CCC(N2CCCC2)CC1 [Example 124, N-(1,2,3,5,6,7-hexahydro-s-indacen-4-yl)-5-((4-(pyrrolidin-1-yl)piperidin-1-yl)sulfonyl)-4H-1,2,4-triazol-3-amine]	≤ 5	≤ 1
CN(C)CCCNS(=O)(=O)c1nnc(Nc2c3c(cc4c2CCC4)CCC3)[nH]1 [Example 125, N-(3-(dimethylamino)propyl)-5-((1,2,3,5,6,7-hexahydro-s-indacen-4-yl)amino)-4H-1,2,4-triazole-3-sulfonamide]	≤ 5	≤ 0.5
O=S(=O)(NCCCN1CCCC1)c1nnc(Nc2c3c(cc4c2CCC4)CCC3)[nH]1 [Example 126, 5-((1,2,3,5,6,7-hexahydro-s-indacen-4-yl)amino)-N-(3-(pyrrolidin-1-yl)propyl)-4H-1,2,4-triazole-3-sulfonamide]	≤ 5	≤ 1
CN1CCCC(CNS(=O)(=O)c2nnc(Nc3c4c(cc5c3CCC5)CCC4)[nH]2)C1 (stereo not shown) [Example 128, 5-((1,2,3,5,6,7-hexahydro-s-indacen-4-yl)amino)-N-((1-methylpiperidin-3-yl)methyl)-4H-1,2,4-triazole-3-sulfonamide]	≤ 10	≤ 1

Source: patent US20210261512A1, “NOVEL COMPOUNDS” (INFLAZOME LIMITED, priority 2018, published 2021)
